Laboratory results taken from ChEMBL document CHEMBL3098039, “Urea/oxalamide tethered β-lactam-7-chloroquinoline conjugates: synthesis and in vitro antimalarial evaluation” (Eur J Med Chem, 2014).

system: not listed separately; assay: Cytotoxicity against human HeLa cells assessed as cell viability at 1 uM after 24 hrs by trypan blue assay relative to untreated control; assay type: cell-based; conditions: read-out: Activity

| Compound | viability at 24 h, 1 µM [%] |
| --- | --- |
| COc1cccc2c1C(=O)c1c(O)c3c(c(O)c1C2=O)C[C@@](O)(C(=O)CO)C[C@@H]3O[C@H]1C[C@H](N)[C@H](O)[C@H](C)O1 [DOXORUBICIN] | 62 |

system: not listed separately; assay: Cytotoxicity against human HeLa cells assessed as cell viability at 10 uM after 24 hrs by trypan blue assay relative to untreated control; assay type: cell-based; conditions: read-out: Activity

| Compound | viability at 24 h, 10 µM [%] |
| --- | --- |
| O=C(NCCCCCCNc1ccnc2cc(Cl)ccc12)C(=O)N[C@@H]1C(=O)N(C2CCCCC2)[C@@H]1/C=C/c1ccccc1 (racemic) | 90 |
| Cc1ccc(N2C(=O)[C@H](NC(=O)NCCCCCCNc3ccnc4cc(Cl)ccc34)[C@@H]2/C=C/c2ccccc2)cc1 (racemic) | 90 |

system: Plasmodium falciparum; assay: Antiplasmodial activity against chloroquine-resistant ring stage Plasmodium falciparum W2 assessed as parasitemia after 48 hrs by flow cytometry; assay type: functional, organism-based; conditions: W2, 48 h

| Compound | IC50 [nM] |
| --- | --- |
| Cc1ccc(N2C(=O)[C@H](NC(=O)NCCNc3ccnc4cc(Cl)ccc34)[C@@H]2/C=C/c2ccccc2)cc1 (mixture of isomers) | 53.1 |
| O=C(NCCCNc1ccnc2cc(Cl)ccc12)C(=O)N[C@@H]1C(=O)N(C2CCCCC2)[C@@H]1/C=C/c1ccccc1 (mixture of isomers) | 121 |
| C[C@@H]1CC[C@H]2[C@@H](C)C(=O)O[C@@H]3O[C@@]4(C)CC[C@@H]1[C@]32OO4 [ARTEMISININ] | 10.6 |
| O=C(NCCCCCCNc1ccnc2cc(Cl)ccc12)C(=O)N[C@@H]1C(=O)N(C2CCCCC2)[C@@H]1/C=C/c1ccccc1 (racemic) | 35 |
| O=C(NCCCCCCNc1ccnc2cc(Cl)ccc12)N[C@H]1C(=O)N(C2CCCCC2)[C@H]1/C=C/c1ccccc1 (racemic) | 52.1 |
| CCOC(=O)C(=O)N[C@@H]1C(=O)N(c2ccc(C)cc2)[C@@H]1/C=C/c1ccccc1 (racemic) | > 1000 |
| CCOC(=O)C(=O)N[C@@H]1C(=O)N(C2CCCCC2)[C@@H]1/C=C/c1ccccc1 (racemic) | > 1000 |
| Cc1ccc(N2C(=O)[C@@H](NC(=O)C(=O)NCCNc3ccnc4cc(Cl)ccc34)[C@H]2/C=C/c2ccccc2)cc1 (racemic) | 44.8 |
| O=C(NCCCCCCNc1ccnc2cc(Cl)ccc12)C(=O)N[C@@H]1C(=O)N(c2ccc(Cl)cc2)[C@@H]1/C=C/c1ccccc1 (racemic) | 50.8 |
| O=C(NCCCNc1ccnc2cc(Cl)ccc12)N[C@H]1C(=O)N(C2CCCCC2)[C@H]1/C=C/c1ccccc1 (relative stereo) | 73 |
| Cc1ccc(N2C(=O)[C@H](NC(=O)NCCCNc3ccnc4cc(Cl)ccc34)[C@@H]2/C=C/c2ccccc2)cc1 (racemic) | 51 |
| CCOC(=O)N[C@@H]1C(=O)N(c2ccc(C)cc2)[C@@H]1/C=C/c1ccccc1 (racemic) | > 1000 |
| Cc1ccc(N2C(=O)[C@H](NC(=O)NCCCCNc3ccnc4cc(Cl)ccc34)[C@@H]2/C=C/c2ccccc2)cc1 (mixture of isomers) | 149 |
| Cc1ccc(N2C(=O)[C@@H](NC(=O)C(=O)NCCCNc3ccnc4cc(Cl)ccc34)[C@H]2/C=C/c2ccccc2)cc1 (racemic) | 88.7 |
| CCNCc1cc(Nc2ccnc3cc(Cl)ccc23)ccc1O [DESETHYL AMODIAQUINE] | 401 |
| O=C(NCCCCNc1ccnc2cc(Cl)ccc12)C(=O)N[C@@H]1C(=O)N(C2CCCCC2)[C@@H]1/C=C/c1ccccc1 (mixture of isomers) | 68.6 |
| CCOC(=O)C(=O)N[C@@H]1C(=O)N(c2ccc(Cl)cc2)[C@@H]1/C=C/c1ccccc1 (relative stereo) | > 1000 |
| O=C(NCCNc1ccnc2cc(Cl)ccc12)C(=O)N[C@@H]1C(=O)N(C2CCCCC2)[C@@H]1/C=C/c1ccccc1 (racemic) | 61.3 |
| O=C(NCCCCNc1ccnc2cc(Cl)ccc12)C(=O)N[C@@H]1C(=O)N(c2ccc(Cl)cc2)[C@@H]1/C=C/c1ccccc1 (racemic) | 82.2 |
| Cc1ccc(N2C(=O)[C@H](NC(=O)NCCCCCCNc3ccnc4cc(Cl)ccc34)[C@@H]2/C=C/c2ccccc2)cc1 (racemic) | 42.4 |
| CCOC(=O)N[C@@H]1C(=O)N(C2CCCCC2)[C@@H]1/C=C/c1ccccc1 (racemic) | > 1000 |
| O=C(NCCCCNc1ccnc2cc(Cl)ccc12)N[C@H]1C(=O)N(C2CCCCC2)[C@H]1/C=C/c1ccccc1 (relative stereo) | 193 |
| O=C(NCCNc1ccnc2cc(Cl)ccc12)N[C@H]1C(=O)N(C2CCCCC2)[C@H]1/C=C/c1ccccc1 (mixture of isomers) | 157 |
